# Experimental data as given in US10105357B2, “Indication of antibiotic drugs for preparation of cancer inhibition pharmaceutical composition” (LAUNX BIOMEDICAL CO., LTD., priority 2014, dated 2018).
# Where two headings read alike, the source gives them in different places.
# Assays:
# Format in all cases: cell-based, human
# [1] = test system: AGS (Gastric Adenocarcinoma); experiment: Cell viability analysis, gastric cancer AGS; details: for viability at 10 µM: Homo sapiens
# [2] = test system: HeLa (Cervix Adenocarcinoma); experiment: Cell viability analysis, cervical cancer HeLa; details: for viability at 10 µM: Homo sapiens, HeLa
# [3] = test system: A375 (Amelanotic Melanoma); experiment: Cell viability analysis, skin cancer A375; details: for viability at 10 µM: Homo sapiens
# [4] = test system: MKN-45 (Gastric Adenocarcinoma); experiment: Cell viability analysis, gastric cancer MKN-45; details: for viability at 10 µM: Homo sapiens
# [5] = test system: HepG2 (Hepatocellular Carcinoma); experiment: Cell viability analysis, hepatic cancer HepG2; details: for viability at 10 µM: Homo sapiens
# [6] = test system: TSGH-8301 (Urinary Bladder Carcinoma); experiment: Cell viability analysis, bladder cancer TSGH-8301; details: for viability at 10 µM: Homo sapiens
# [7] = test system: LoVo (Colorectal Adenocarcinoma); experiment: Cell viability analysis, colon cancer LoVo; details: for viability at 10 µM: Homo sapiens, LoVo
# [8] = test system: HI650 (Lung Adenocarcinoma); experiment: Cell viability analysis, lung cancer HI650; details: for viability at 10 µM: Homo sapiens
# [9] = test system: A549 (Lung Adenocarcinoma); experiment: Cell viability analysis, lung cancer A549; details: for viability at 10 µM: Homo sapiens
# [10] = test system: HL-60 (Acute Promyelocytic Leukemia); experiment: Cell viability analysis, leukemia HL-60; details: for viability at 10 µM: Homo sapiens
# [11] = test system: PC3 (p53−) (Prostate Adenocarcinoma); experiment: Cell viability analysis, prostate cancer PC3; details: for viability at 10 µM: Homo sapiens
# [12] = test system: MCF7 (Mammary Gland, Adenocarcinoma); experiment: Cell viability analysis, breast cancer MCF7; details: for viability at 10 µM: Homo sapiens
# [13] = test system: cancer cell lines; experiment: Cell viability analysis (WST-1) on cancer cell lines; details: drug 10 μM, 72 hours, WST-1; Table 3
# [14] = 72 h, read-out: cell viability (survival rate), LoVo, drug 10 μM, 72 hours, WST-1, OD450 nm
smiles,measurement,setting,value
CC1(C)S[C@@H]2[C@H](NC(=O)[C@H](N)c3ccccc3)C(=O)N2[C@H]1C(=O)O [Ampicillin Trihydrate],"cell viability (survival rate), AGS","[1]; human, 72 h, 10 µM",95.3
same,"cell viability (survival rate), HeLa","[2]; human, 72 h, 10 µM",59.3
same,"cell viability (survival rate), A375","[3]; human, 72 h, 10 µM",53.7
same,"cell viability (survival rate), MKN-45","[4]; human, 72 h, 10 µM",56.3
same,"cell viability (survival rate), HepG2","[5]; human, 72 h, 10 µM",92.4
same,"cell viability (survival rate), TSGH","[6]; human, 72 h, 10 µM",61.3
same,"cell viability (survival rate), LoVo","[7]; human, 72 h, 10 µM",78.4
same,"cell viability (survival rate), H1650","[8]; human, 72 h, 10 µM",63.6
same,"cell viability (survival rate), A549","[9]; human, 72 h, 10 µM",41.9
same,"cell viability (survival rate), HL-60","[10]; human, 72 h, 10 µM",92.7
same,"cell viability (survival rate), PC3","[11]; human, 72 h, 10 µM",65.3
same,"cell viability (survival rate), MCF7","[12]; human, 72 h, 10 µM",36.5
same,inhibition effect on different cancer cell lines,[13],significant inhibition effect
Cc1cc(=O)n(-c2ccccc2)n1C [Antipyrine],viability at 10 µM,"[1]; drug 10 μM, 72 hours, WST-1, OD450 nm, read-out: cell viability (survival rate), AGS",109%
same,viability at 10 µM,"[2]; drug 10 μM, 72 hours, WST-1, OD450 nm, read-out: cell viability (survival rate), HeLa",76.8%
same,viability at 10 µM,"[3]; A-375, drug 10 μM, 72 hours, WST-1, OD450 nm, read-out: cell viability (survival rate), A375",77.9%
same,viability at 10 µM,"[4]; MKN-45, drug 10 μM, 72 hours, WST-1, OD450 nm, read-out: cell viability (survival rate), MKN-45",109%
same,viability at 10 µM,"[5]; HepG2, drug 10 μM, 72 hours, WST-1, OD450 nm, read-out: cell viability (survival rate), HepG2",105%
same,viability at 10 µM,"[6]; drug 10 μM, 72 hours, WST-1, OD450 nm, read-out: cell viability (survival rate), TSGH",90.1%
same,viability at 10 µM,"[7]; drug 10 μM, 72 hours, WST-1, OD450 nm, read-out: cell viability (survival rate), LoVo",97.1%
same,viability at 10 µM,"[8]; NCI-H1650, drug 10 μM, 72 hours, WST-1, OD450 nm, read-out: cell viability (survival rate), H1650",57.3%
same,viability at 10 µM,"[9]; A549, drug 10 μM, 72 hours, WST-1, OD450 nm, read-out: cell viability (survival rate), A549",76.4%
same,viability at 10 µM,"[10]; HL-60, drug 10 μM, 72 hours, WST-1, OD450 nm, read-out: cell viability (survival rate), HL-60",102%
same,viability at 10 µM,"[11]; drug 10 μM, 72 hours, WST-1, OD450 nm, read-out: cell viability (survival rate), PC3",76.8%
same,viability at 10 µM,"[12]; MCF7, drug 10 μM, 72 hours, WST-1, OD450 nm, read-out: cell viability (survival rate), MCF7",61.3%
same,inhibition effect on different cancer cell lines,[13],significant inhibition effect
C[C@@H]1CC[C@H]2[C@@H](C)C(=O)O[C@@H]3O[C@@]4(C)CC[C@@H]1[C@]32OO4 [Artemisinin],viability at 10 µM,"[1]; 72 h, read-out: cell viability (survival rate), AGS, drug 10 μM, 72 hours, WST-1, OD450 nm",87.7%
same,viability at 10 µM,"[2]; 72 h, read-out: cell viability (survival rate), HeLa, drug 10 μM, 72 hours, WST-1, OD450 nm",120%
same,viability at 10 µM,"[3]; A-375, 72 h, read-out: cell viability (survival rate), A375, drug 10 μM, 72 hours, WST-1, OD450 nm",88.9%
same,viability at 10 µM,"[4]; MKN-45, 72 h, read-out: cell viability (survival rate), MKN-45, drug 10 μM, 72 hours, WST-1, OD450 nm",117%
same,viability at 10 µM,"[5]; HepG2, 72 h, read-out: cell viability (survival rate), HepG2, drug 10 μM, 72 hours, WST-1, OD450 nm",116%
same,viability at 10 µM,"[6]; 72 h, read-out: cell viability (survival rate), TSGH, drug 10 μM, 72 hours, WST-1, OD450 nm",63.6%
same,viability at 10 µM,[7]; [14],104%
same,viability at 10 µM,"[8]; NCI-H1650, 72 h, read-out: cell viability (survival rate), H1650, drug 10 μM, 72 hours, WST-1, OD450 nm",106%
same,viability at 10 µM,"[9]; A549, 72 h, read-out: cell viability (survival rate), A549, drug 10 μM, 72 hours, WST-1, OD450 nm",98.7%
same,viability at 10 µM,"[10]; HL-60, 72 h, read-out: cell viability (survival rate), HL-60, drug 10 μM, 72 hours, WST-1, OD450 nm",146%
same,viability at 10 µM,"[11]; 72 h, read-out: cell viability (survival rate), PC3, drug 10 μM, 72 hours, WST-1, OD450 nm",92.5%
same,viability at 10 µM,"[12]; MCF7, 72 h, read-out: cell viability (survival rate), MCF7, drug 10 μM, 72 hours, WST-1, OD450 nm",151%
same,inhibition effect on different cancer cell lines,[13],significant inhibition effect
CN1CCC(=C2c3ccccc3CCc3cccnc32)CC1 [Azatadine dimaleate],viability at 10 µM,"[1]; 72 h, drug 10 μM, 72 hours, WST-1, OD450 nm, read-out: cell viability (survival rate), AGS",67.1%
same,viability at 10 µM,"[2]; 72 h, drug 10 μM, 72 hours, WST-1, OD450 nm, read-out: cell viability (survival rate), HeLa",72.2%
same,viability at 10 µM,"[3]; A-375, 72 h, drug 10 μM, 72 hours, WST-1, OD450 nm, read-out: cell viability (survival rate), A375",40.7%
same,viability at 10 µM,"[4]; MKN-45, 72 h, drug 10 μM, 72 hours, WST-1, OD450 nm, read-out: cell viability (survival rate), MKN-45",83.4%
same,viability at 10 µM,"[5]; HepG2, 72 h, drug 10 μM, 72 hours, WST-1, OD450 nm, read-out: cell viability (survival rate), HepG2",84.5%
same,viability at 10 µM,"[6]; 72 h, drug 10 μM, 72 hours, WST-1, OD450 nm, read-out: cell viability (survival rate), TSGH",78.5%
same,viability at 10 µM,[7]; [14],95.7%
same,viability at 10 µM,"[8]; NCI-H1650, 72 h, drug 10 μM, 72 hours, WST-1, OD450 nm, read-out: cell viability (survival rate), H1650",48.5%
same,viability at 10 µM,"[9]; A549, 72 h, drug 10 μM, 72 hours, WST-1, OD450 nm, read-out: cell viability (survival rate), A549",123%
same,viability at 10 µM,"[10]; HL-60, 72 h, drug 10 μM, 72 hours, WST-1, OD450 nm, read-out: cell viability (survival rate), HL-60",113%
same,viability at 10 µM,"[11]; 72 h, drug 10 μM, 72 hours, WST-1, OD450 nm, read-out: cell viability (survival rate), PC3",104%
same,viability at 10 µM,"[12]; MCF7, 72 h, drug 10 μM, 72 hours, WST-1, OD450 nm, read-out: cell viability (survival rate), MCF7",79.7%
same,inhibition effect on different cancer cell lines,[13],significant inhibition effect
